Laboratory results from patent US9290455B2, “CDDO-Me amino acid conjugates and methods of use” (Trustees of Dartmouth College, priority 2014, dated 2016).

System: reactive oxygen species
Experiment: Reactive oxygen species in tBHP-challenged RAW cells (H2DCFA, flow cytometry)
Type: cell-based
Conditions: 100 nM for 18 hours, 250 μM tBHP for 15 minutes
Procedure: RAW264.7 cells were incubated with 10 and 100 nM of the synthetic triterpenoids for 18 hours, H2DCFA was then added for 30 minutes and the cells were challenged with 250 μM of tert-butyl hydroperoxide for 15 minutes to induce ROS. Mean fluorescence intensity of 50,000 cells was detected by flow cytometry. The results were obtained from three independent experiments.
The antioxidative activity of these compounds was explored as well. This experiment was based on the deacetylation and then oxidation of the non-fluorescent reagent 2′,7′-dichlorodihydrofluorescein diacetate (H2DCFA) to a fluorescent derivative. To study the effects of the TPs on oxidative stress, RAW cells were treated with 10-100 nM of the TPs for 18 hours. Cells were then incubated with 10 μM H2DCFA for […] and challenged with 250 μM of tert-butyl hydroperoxide (tBHP) for 15 minutes. The mean fluorescence intensity was measured by flow cytometry, using a 480 nm excitation wavelength and a 525 nm emission wavelength.

COC(=O)[C@]12CCC(C)(C)C[C@H]1[C@H]1C(=O)C=C3[C@@]4(C)C=C(C#N)C(=O)C(C)(C)[C@@H]4CC[C@@]3(C)[C@]1(C)CC2 [CDDO-Me, bardoxolone methyl]
protection against ROS at 100 nM compared with 10 nM: slightly better
